We go through 14 compounds from patent US10670605B2, “Cysteine reactive probes and uses thereof” (The Scripps Research Institute, priority 2015, dated 2020).

Common to all, as to experiment: Competitive isoTOP-ABPP in situ (fragment-treated cells)
What all share (type): cell-based

The target of assay [1] is T1, cysteines in MDA-MB-231 and Ramos cells (Homo sapiens, UniProt P24468).
T1 sequence (P24468 1-414): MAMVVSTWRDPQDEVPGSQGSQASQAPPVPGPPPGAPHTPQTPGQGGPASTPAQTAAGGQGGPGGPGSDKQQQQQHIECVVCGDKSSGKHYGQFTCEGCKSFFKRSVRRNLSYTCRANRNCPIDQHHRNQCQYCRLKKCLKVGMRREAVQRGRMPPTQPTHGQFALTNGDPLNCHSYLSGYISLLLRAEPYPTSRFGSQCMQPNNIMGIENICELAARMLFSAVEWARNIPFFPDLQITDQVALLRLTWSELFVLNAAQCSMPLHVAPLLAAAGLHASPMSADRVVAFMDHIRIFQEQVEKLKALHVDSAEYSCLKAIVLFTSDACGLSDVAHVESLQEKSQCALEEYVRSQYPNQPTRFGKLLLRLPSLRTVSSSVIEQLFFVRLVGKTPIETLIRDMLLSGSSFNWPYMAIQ

Assay [2] addresses T2, cysteines in MDA-MB-231 and Ramos cells (Homo sapiens, UniProt Q9Y570).
T2 sequence (Q9Y570 1-386): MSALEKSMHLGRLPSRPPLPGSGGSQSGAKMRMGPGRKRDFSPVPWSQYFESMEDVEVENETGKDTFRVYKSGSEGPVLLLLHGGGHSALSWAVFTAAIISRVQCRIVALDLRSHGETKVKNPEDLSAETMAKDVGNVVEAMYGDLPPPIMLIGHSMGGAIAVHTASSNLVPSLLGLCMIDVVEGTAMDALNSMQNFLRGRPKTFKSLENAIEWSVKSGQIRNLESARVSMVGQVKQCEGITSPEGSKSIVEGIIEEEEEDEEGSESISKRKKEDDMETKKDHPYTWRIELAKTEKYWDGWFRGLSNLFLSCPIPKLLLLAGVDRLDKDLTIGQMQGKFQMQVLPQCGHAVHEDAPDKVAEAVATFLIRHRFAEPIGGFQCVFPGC

Assay [3] deals with T3, cysteines in MDA-MB-231 and Ramos cells (Homo sapiens, UniProt Q9Y5Y2).
T3 sequence (Q9Y5Y2 1-271): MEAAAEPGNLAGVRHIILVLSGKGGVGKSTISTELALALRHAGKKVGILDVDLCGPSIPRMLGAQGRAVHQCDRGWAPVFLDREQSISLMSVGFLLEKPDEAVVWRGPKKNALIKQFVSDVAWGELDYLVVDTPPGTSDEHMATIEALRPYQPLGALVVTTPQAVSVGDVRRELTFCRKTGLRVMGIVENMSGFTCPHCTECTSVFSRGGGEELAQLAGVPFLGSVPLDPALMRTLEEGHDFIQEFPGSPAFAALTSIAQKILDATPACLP

The target of assay [4] is T4, cysteines in MDA-MB-231 and Ramos cells (Homo sapiens, UniProt A0AVT1).
T4 sequence (A0AVT1 1-1052): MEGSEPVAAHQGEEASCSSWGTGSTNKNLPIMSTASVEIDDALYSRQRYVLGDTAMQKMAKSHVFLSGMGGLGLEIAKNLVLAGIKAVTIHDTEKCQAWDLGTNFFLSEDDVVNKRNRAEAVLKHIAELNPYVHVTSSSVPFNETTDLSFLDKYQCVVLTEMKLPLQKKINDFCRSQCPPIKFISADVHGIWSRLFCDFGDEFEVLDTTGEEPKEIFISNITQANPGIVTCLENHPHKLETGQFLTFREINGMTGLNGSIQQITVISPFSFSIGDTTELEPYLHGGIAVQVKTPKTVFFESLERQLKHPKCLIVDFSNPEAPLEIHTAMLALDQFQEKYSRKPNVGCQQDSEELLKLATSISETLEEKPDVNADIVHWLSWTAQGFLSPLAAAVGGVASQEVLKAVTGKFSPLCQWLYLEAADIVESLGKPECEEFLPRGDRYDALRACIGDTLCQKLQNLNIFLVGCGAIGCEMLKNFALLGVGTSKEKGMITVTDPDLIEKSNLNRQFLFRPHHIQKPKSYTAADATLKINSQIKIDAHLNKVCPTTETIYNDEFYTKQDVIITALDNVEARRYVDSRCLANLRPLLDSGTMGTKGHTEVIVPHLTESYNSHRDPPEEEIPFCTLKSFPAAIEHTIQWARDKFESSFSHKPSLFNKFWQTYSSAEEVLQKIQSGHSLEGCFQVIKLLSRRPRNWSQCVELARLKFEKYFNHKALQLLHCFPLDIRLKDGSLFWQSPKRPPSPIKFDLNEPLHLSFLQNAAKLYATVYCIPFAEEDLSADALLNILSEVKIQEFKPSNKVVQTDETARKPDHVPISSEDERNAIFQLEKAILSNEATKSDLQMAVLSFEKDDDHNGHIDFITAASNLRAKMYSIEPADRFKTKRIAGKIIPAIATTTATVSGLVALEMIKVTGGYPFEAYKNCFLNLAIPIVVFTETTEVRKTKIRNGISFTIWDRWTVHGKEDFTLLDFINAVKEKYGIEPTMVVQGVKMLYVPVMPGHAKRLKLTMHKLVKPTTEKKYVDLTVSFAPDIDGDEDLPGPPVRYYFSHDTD

In assay [5] the target is T5, cysteines in MDA-MB-231 and Ramos cells (Homo sapiens, UniProt Q96EB1).
T5 sequence (Q96EB1 1-424): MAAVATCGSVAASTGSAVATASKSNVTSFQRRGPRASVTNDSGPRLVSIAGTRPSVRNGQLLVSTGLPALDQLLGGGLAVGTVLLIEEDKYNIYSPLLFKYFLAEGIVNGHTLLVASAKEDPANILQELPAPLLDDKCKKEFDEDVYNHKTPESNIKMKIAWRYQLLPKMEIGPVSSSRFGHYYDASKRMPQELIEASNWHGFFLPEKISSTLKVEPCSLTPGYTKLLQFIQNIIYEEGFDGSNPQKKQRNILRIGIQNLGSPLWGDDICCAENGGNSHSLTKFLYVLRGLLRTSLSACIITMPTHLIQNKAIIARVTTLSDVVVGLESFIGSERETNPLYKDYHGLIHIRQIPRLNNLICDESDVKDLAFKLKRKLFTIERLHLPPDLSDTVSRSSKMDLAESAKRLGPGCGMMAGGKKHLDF

Regarding `COc1ccc2c(c1)CCCN2C(=O)CCl` [compound 2], the “isoTOP-ABPP reactivity P24468_C326 NR2F2” value in assay [1] (200 μM, insitu, 231) amounted to 20.0. Besides, in assay [2] (200 μM, insitu, 231), the “isoTOP-ABPP reactivity Q9Y570_C381 PPME1” value amounted to 12.6. In addition, the “isoTOP-ABPP reactivity Q9Y5Y2_C72 NUBP2” value in assay [3] (200 μM, insitu, 231) came to 5.3.

For `COc1ccc(C2CC(c3cccs3)=NN2C(=O)CCl)cc1` (centres unmarked) [compound 4], the “isoTOP-ABPP reactivity A0AVT1_C347 UBA6” value in assay [4] (100 μM in situ 231) is recorded as 20.0. The “isoTOP-ABPP reactivity P24468_C326 NR2F2” value in assay [1] (100 μM in situ 231) is reported as 20.0. Further, the “isoTOP-ABPP reactivity Q96EB1_C218 ELP4” value in assay [5] (100 μM in situ 231) is listed as 20.0. The “isoTOP-ABPP reactivity Q9Y570_C381 PPME1” value in assay [2] (100 μM in situ 231) turned out to be 1.1.

`COc1cc2c(cc1OC)CN(C(=O)CCl)CC2` [compound 8]: in assay [1] (200 μM, insitu, 231), the “isoTOP-ABPP reactivity P24468_C326 NR2F2” value is recorded as 20.0.

Regarding `O=C(CCl)N1CCC(Cc2ccccc2)CC1` [compound 9], the “isoTOP-ABPP reactivity A0AVT1_C347 UBA6” value in assay [4] (200 μM, insitu, 231) is given as 3.3. Also, the “isoTOP-ABPP reactivity Q96EB1_C218 ELP4” value in assay [5] (200 μM, insitu, 231) stood at 8.4. For the same compound, in assay [2] (200 μM, insitu, 231), the “isoTOP-ABPP reactivity Q9Y570_C381 PPME1” value amounted to 20.0. The “isoTOP-ABPP reactivity Q9Y5Y2_C72 NUBP2” value in assay [3] (200 μM, insitu, 231) is 4.0.

Regarding `O=C(CCl)N1CCN(S(=O)(=O)c2ccccc2F)CC1` [compound 10], the “isoTOP-ABPP ratio, cysteine A0AVT1_C347” value in assay [4] (200 μM, insitu, ramos) is reported as 20.0. Besides, in assay [1] (200 μM, insitu, 231), the “isoTOP-ABPP ratio, cysteine P24468_C326” value was 20.0. Further, the “isoTOP-ABPP ratio, cysteine Q96EB1_C218” value in assay [5] (200 μM, insitu, 231) came out at 1.1. Moreover, the “isoTOP-ABPP ratio, cysteine Q9Y570_C381” value in assay [2] (200 μM, insitu, 231) amounted to 4.7. Also, the “isoTOP-ABPP ratio, cysteine Q9Y5Y2_C72” value in assay [3] (200 μM, insitu, 231) was 1.3.

On to `Cn1cc(S(=O)(=O)N2CCOCC2)cc1C(=O)NC(=O)CCl` [compound 11], for which, in assay [4] (100 μM in situ 231), the “isoTOP-ABPP ratio, cysteine A0AVT1_C347” value is listed as 1.6. For the same compound, the “isoTOP-ABPP ratio, cysteine P24468_C326” value in assay [1] (100 μM in situ 231) is reported as 0.9. Besides, in assay [3] (100 μM in situ 231), the “isoTOP-ABPP ratio, cysteine Q9Y5Y2_C72” value came to 0.5.

`O=C(CCl)NCCc1c[nH]c2ccccc12` [compound 13]: in assay [4] (200 μM, insitu, 231), the “isoTOP-ABPP ratio, cysteine A0AVT1_C347” value is given as 1.3. In addition, the “isoTOP-ABPP ratio, cysteine Q96EB1_C218” value was found to be 1.2 in assay [5] (200 μM, insitu, 231) and 1.7 in assay [5] (200 μM, insitu, ramos). Further, the “isoTOP-ABPP ratio, cysteine Q9Y570_C381” value in assay [2] (200 μM, insitu, 231) is 0.9. The “isoTOP-ABPP ratio, cysteine Q9Y5Y2_C72” value in assay [3] (200 μM, insitu, ramos) was 1.5.

Turning to `O=C(CCl)NC12CC3CC(CC(C3)C1)C2` [compound 21], in assay [1] (200 μM, insitu, 231), the “isoTOP-ABPP ratio, cysteine P24468_C326” value is recorded as 1.1. In assay [5] (200 μM, insitu, 231), the “isoTOP-ABPP ratio, cysteine Q96EB1_C218” value was found to be 0.7.

As for `CC(C)CCOCCNC(=O)CCl` [compound 27], the “isoTOP-ABPP ratio A0AVT1_C347” value in assay [4] (200 μM, insitu, 231) came out at 0.8. The “isoTOP-ABPP ratio P24468_C326” value in assay [1] (200 μM, insitu, 231) turned out to be 1.2. Further, in assay [5] (200 μM, insitu, 231), the “isoTOP-ABPP ratio Q96EB1_C218” value came out at 0.6.

`O=C(CCl)N1CCN(CC(=O)N2CCOCC2)CC1` [compound 29]: in assay [5] (200 μM, insitu, ramos), the “isoTOP-ABPP ratio Q96EB1_C218” value was 1.1. The “isoTOP-ABPP ratio Q9Y570_C381” value in assay [2] (200 μM, insitu, ramos) was 1.2. Further, the “isoTOP-ABPP ratio Q9Y5Y2_C72” value in assay [3] (200 μM, insitu, ramos) was determined as 1.1.

On to `C=CC(=O)N(Cc1cccnc1)c1cc(C(F)(F)F)cc(C(F)(F)F)c1` [compound 31], for which the “isoTOP-ABPP ratio A0AVT1_C347” value in assay [4] (200 μM, insitu, ramos) turned out to be 1.9.

As for `C=CC(=O)Nc1cc(F)c(N2CCN(C(=O)OC(C)(C)C)CC2)c(F)c1` [compound 38], the “isoTOP-ABPP ratio Q96EB1_C218” value in assay [5] (200 μM, insitu, 231) amounted to 1.3. In addition, in assay [3] (200 μM, insitu, 231), the “isoTOP-ABPP ratio Q9Y5Y2_C72” value stood at 1.7.

On to `Cc1ccc(C=C(C#N)C(=O)NCCN2CCOCC2)cc1` [compound 41], for which, in assay [4] (200 μM, insitu, 231), the “isoTOP-ABPP ratio A0AVT1_C347” value stood at 0.6. Moreover, the “isoTOP-ABPP ratio P24468_C326” value in assay [1] (200 μM, insitu, 231) came out at 0.8. The “isoTOP-ABPP ratio Q9Y570_C381” value in assay [2] (200 μM, insitu, 231) is on record as 0.2.

For the compound `CC1CCc2ccccc2N1C(=O)CCl` (centres unmarked) [compound 45], in assay [1] (200 μM, insitu, 231), the “isoTOP-ABPP ratio P24468_C326” value was 20.0. Besides, the “isoTOP-ABPP ratio Q96EB1_C218” value in assay [5] (200 μM, insitu, 231) is recorded as 20.0.
